Results on twelve compounds are retold here after US9540366B2, “Ring-fused heterocyclic compound” (Kyowa Hakko Kirin Co., Ltd., priority 2012, dated 2017).

pIC50: −log10 of the molar value.

T1 sequence (O95180 whole entry): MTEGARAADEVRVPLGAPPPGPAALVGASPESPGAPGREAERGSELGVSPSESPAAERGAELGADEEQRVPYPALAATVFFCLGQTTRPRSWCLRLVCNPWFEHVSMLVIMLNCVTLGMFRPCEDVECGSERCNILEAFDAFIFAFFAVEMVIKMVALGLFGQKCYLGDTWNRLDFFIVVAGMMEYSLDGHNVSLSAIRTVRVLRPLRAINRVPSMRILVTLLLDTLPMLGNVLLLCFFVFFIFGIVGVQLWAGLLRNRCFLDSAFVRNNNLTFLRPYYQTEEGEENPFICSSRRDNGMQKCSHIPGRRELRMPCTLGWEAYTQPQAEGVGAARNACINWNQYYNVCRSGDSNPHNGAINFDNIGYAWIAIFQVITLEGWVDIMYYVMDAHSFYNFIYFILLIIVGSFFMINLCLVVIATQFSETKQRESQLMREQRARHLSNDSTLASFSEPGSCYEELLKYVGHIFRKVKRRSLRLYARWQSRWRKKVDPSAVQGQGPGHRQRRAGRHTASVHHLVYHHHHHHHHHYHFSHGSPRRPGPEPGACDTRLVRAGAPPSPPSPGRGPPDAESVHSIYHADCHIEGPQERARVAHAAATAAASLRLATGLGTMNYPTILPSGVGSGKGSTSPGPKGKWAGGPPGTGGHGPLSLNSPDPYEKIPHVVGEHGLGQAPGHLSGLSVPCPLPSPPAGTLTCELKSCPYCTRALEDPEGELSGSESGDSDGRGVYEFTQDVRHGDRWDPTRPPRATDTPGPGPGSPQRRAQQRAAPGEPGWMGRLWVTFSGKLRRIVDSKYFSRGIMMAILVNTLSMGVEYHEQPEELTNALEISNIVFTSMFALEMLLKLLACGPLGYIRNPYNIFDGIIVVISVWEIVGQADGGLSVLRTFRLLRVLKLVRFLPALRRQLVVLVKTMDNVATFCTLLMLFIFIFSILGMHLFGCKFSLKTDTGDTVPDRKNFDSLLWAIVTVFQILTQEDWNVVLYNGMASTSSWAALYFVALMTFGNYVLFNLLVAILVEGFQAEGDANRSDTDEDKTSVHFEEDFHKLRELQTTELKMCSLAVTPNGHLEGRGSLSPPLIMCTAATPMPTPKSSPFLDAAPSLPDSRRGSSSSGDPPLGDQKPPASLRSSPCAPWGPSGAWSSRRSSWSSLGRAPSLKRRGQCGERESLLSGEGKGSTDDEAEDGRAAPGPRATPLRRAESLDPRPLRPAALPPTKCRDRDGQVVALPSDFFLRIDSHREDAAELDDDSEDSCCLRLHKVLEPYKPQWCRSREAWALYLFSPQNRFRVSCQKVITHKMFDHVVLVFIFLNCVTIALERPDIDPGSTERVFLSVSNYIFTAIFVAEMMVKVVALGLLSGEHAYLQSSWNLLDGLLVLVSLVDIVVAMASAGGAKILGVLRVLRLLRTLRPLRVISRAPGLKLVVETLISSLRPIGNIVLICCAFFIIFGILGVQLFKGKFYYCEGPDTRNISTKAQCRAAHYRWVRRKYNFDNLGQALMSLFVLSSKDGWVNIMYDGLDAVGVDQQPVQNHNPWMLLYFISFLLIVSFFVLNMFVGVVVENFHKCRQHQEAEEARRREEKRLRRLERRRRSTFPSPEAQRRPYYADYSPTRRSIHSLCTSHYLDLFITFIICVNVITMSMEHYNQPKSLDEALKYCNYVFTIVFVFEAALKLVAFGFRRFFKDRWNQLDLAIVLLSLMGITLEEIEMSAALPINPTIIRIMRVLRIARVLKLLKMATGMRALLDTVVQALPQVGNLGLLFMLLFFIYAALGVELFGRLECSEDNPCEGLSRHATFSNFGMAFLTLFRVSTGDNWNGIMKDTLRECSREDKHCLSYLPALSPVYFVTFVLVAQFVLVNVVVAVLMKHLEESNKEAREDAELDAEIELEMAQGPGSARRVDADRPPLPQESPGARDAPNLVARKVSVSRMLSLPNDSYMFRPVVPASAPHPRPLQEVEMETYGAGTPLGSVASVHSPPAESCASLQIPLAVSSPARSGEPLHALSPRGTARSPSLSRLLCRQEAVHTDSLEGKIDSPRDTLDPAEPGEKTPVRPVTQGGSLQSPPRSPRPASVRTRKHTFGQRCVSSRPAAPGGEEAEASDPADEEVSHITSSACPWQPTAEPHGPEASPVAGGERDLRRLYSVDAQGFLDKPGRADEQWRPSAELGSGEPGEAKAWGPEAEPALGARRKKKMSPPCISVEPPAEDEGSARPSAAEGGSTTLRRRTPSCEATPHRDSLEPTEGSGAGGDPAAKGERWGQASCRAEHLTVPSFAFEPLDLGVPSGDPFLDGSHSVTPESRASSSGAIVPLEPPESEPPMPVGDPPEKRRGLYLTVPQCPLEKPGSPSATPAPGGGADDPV

The first assay addresses T1, human Cav3.2 T-type Ca2+ channel (Homo sapiens, UniProt O95180).
T1 construct: expressed in transfected cells; host or cells: KJMGER8 cells (Namalwa cell-derived cell line)
Nature of the assay: Inhibitory effect for intracellular calcium response via Cav3.2 T-type Ca2+ channels (FLIPR Calcium 3 Assay Kit). Type of assay: cell-based.
Conditions: not given
A general note: Calcium assays in cells follow changes in intracellular calcium, usually with a dye or a luminescent sensor.
As to `N#Cc1cc(C(=O)NC(=O)C2CC2)cc2nc(C(F)(F)F)c(CC3CCC(F)(F)CC3)n12` [Compound 202, 5-Cyano-N-(cyclopropanecarbonyl)-3-[(4,4-difluorocyclohexyl)methyl]-2-(trifluoromethyl)imidazo[1,2-a]pyridine-7-carboxamide], the pIC50 – broadly, −log10 of the IC50, conventionally taken in molar units – was at least 7.00. On the same count and under the same terms, the same measure for `CC(C)(C)C(=O)NC(=O)c1cc(C#N)n2c(CC3CCC(F)(F)CC3)c(C(F)(F)F)nc2c1` [Compound 203, 5-Cyano-3-[(4,4-difluorocyclohexyl)methyl]-N-pivaloyl-2-(trifluoromethyl)imidazo[1,2-a]pyridine-7-carboxamide]: at least 7.00; for `Cc1cc(C(=O)NC2CCOCC2)cc2nc(C(F)(F)F)c(Cc3ccccc3)n12` [Compound 206, 3-Benzyl-5-methyl-N-(tetrahydro-2H-pyran-4-yl)-2-(trifluoromethyl)imidazo[1,2-a]pyridine-7-carboxamide]: at least 7.00. Take `Cc1ccc(Cc2c(C(F)(F)F)nc3cc(C(=O)NC4CCOCC4)cc(C)n23)cc1` [Compound 207, 5-Methyl-3-(4-methylbenzyl)-N-(tetrahydro-2H-pyran-4-yl)-2-(trifluoromethyl)imidazo[1,2-a]pyridine-7-carboxamide]: the pIC50 is at least 7.00. The same measure, in the same setting: the same measure for `COc1ccc(Cc2c(C(F)(F)F)nc3cc(C(=O)NC4CCOCC4)cc(C)n23)cc1` [Compound 209, 3-(4-Methoxybenzyl)-5-methyl-N-(tetrahydro-2H-pyran-4-yl)-2-(trifluoromethyl)imidazo[1,2-a]pyridine-7-carboxamide]: at least 7.00. On the same count and under the same terms, the same measure for `N#Cc1cc(C(=O)NC2CCOCC2)cc2nc(C(F)(F)F)c(Cc3ccc(Cl)cc3)n12` [Compound 211, 3-(4-Chlorobenzyl)-5-cyano-N-(tetrahydro-2H-pyran-4-yl)-2-(trifluoromethyl)imidazo[1,2-a]pyridine-7-carboxamide]: at least 7.00; for `Cc1cc(C(=O)NC2CCOCC2)cc2nc(C(F)(F)F)c(Cc3ccc(F)cc3)n12` [Compound 212, 3-(4-Fluorobenzyl)-5-methyl-N-(tetrahydro-2H-pyran-4-yl)-2-(trifluoromethyl)imidazo[1,2-a]pyridine-7-carboxamide]: at least 7.00; for `CSC(C)(C)CNC(=O)c1cc2nc(C(F)(F)F)c(CC3CCC(F)(F)CC3)n2c(Cl)c1Cl` [Compound 213, 5,6-Dichloro-3-[(4,4-difluorocyclohexyl)methyl]-N-[2-methyl-2-(methylthio)propyl]-2-(trifluoromethyl)imidazo[1,2-a]pyridine-7-carboxamide]: at least 7.00.

Take `Cc1cc(C(=O)NC2CCOCC2)cc2nc(C(C)(F)F)c(Cc3ccc(Cl)cc3)n12` [Compound 214, 3-(4-Chlorobenzyl)-2-(1,1-difluoroethyl)-5-methyl-N-(tetrahydro-2H-pyran-4-yl)imidazo[1,2-a]pyridine-7-carboxamide]: the pIC50 was at least 7.00.

Staying with this assay, now noted: human Cav3.2-expressing KJMGER8 cells (Namalwa-derived); calcium response induced by 5 mmol/L CaCl2; 3 μmol/L mibefradil as reference; read-out: IC50 for the human Cav3.2 T-type Ca2+ current.
Regarding `CC1(C)CC(NC(=O)c2cc3nc(C(F)(F)F)c(CC4CCC(F)(F)CC4)n3c(Cl)c2Cl)CCO1` (stereo not drawn) [Compound 205, 5,6-Dichloro-3-[(4,4-difluorocyclohexyl)methyl]-N-(2,2-dimethyltetrahydro-2H-pyran-4-yl)-2-(trifluoromethyl)imidazo[1,2-a]pyridine-7-carboxamide], the pIC50 was at least 7.00. Regarding `N#Cc1cc(C(=O)N2C[C@H]3COC[C@@H](C2)C3=O)cc2nc(C(F)(F)F)c(CC3CCC(F)(F)CC3)n12` [Compound 210, 3-[(4,4-Difluorocyclohexyl)methyl]-7-[(1R,5S)-9-oxo-3-oxa-7-azabicyclo[3.3.1]nonane-7-carbonyl)-2-(trifluoromethyl)imidazo[1,2-a]pyridine-5-carbonitrile], the pIC50 was at least 7.00. As for `Cc1cc(C(=O)N[C@H]2C[C@@H]3CC[C@H]2O3)cc2nc(C(C)(F)F)c(Cc3ccc(Cl)cc3)n12` [Compound 215, N-[(1R,2S,4S)-7-Oxabicyclo[2.2.1]heptan-2-yl]-3-(4-chlorobenzyl)-2-(1,1-difluoroethyl)-5-methylimidazo[1,2-a]pyridine-7-carboxamide], the negative logarithm of the IC50 (pIC50) is at least 7.00.
